# Target: P. falciparum apicoplast DNA polymerase (Pf-apPOL) (Plasmodium falciparum, UniProt Q8ILY1)
# Assay: Fluorescence-based high-throughput DNA polymerase assay (molecular beacon), primary screen and dose-response
# Type: biochemical
# Protocol: The HT assay employs a molecular beacon, a stem-loop DNA template with a Cy3 dye and the Black Hole Quencher on the 3′ and 5′ ends of the DNA, respectively. Pf-apPOL concentration is based on a calculated absorptivity of ε280 = 56750 M^−1 cm^−1. Reactions were carried out at 25 °C, using Corning 3575 […] (well-volume, 20 µL). Assays testing for compound inhibition composed of reaction buffer (pH 7.9 in 50 mM potassium acetate, 20 mM Tris-acetate and 10 mM magnesium acetate), Pf-apPOL (20 nM), DNA substrate (20 nM), dNTPs (6 µM), and compound (10 µM in DMSO). The DNA and nucleotide substrates (dNTPs) were at concentrations of 20 nM and 6 µM, respectively, in the assay. Pf-apPOL was incubated in the reaction buffer with dNTPs and the compound of interest (10 µM, in the assay) at 25 °C for 10 min. The DNA substrate was then added and the reaction was allowed to proceed for 90 min at 25 °C.
# Each assay plate contained 16 negative controls (no Pf-apPOL, DMSO present) and 16 positive controls (Pf-apPOL present, no DMSO). The fluorescence of each well was determined using a BioTek Synergy Neo fluorescence plate reader using excitation and emission wavelengths of 555 and 570 nm, respectively.
# In the above, Min is the average of fluorescence emission of the negative controls (substrate only), Max the average fluorescence emission from the positive controls (enzyme + substrate), and Test the emission from the assays in the presence of compounds (enzyme + compound + substrates). […] […] The IC50 of each compound was determined using Equation (2): (2) IC50= Vmax/(1+ (I/IC50)^n)
# In the above, n measures cooperativity, with n > 1 indicating synergistic binding of more than a single molecule of the compound.
# To identify apPOL inhibitors we utilised our previously developed high-throughput DNA polymerase assay. The HT assay is based on a molecular beacon DNA template that forms a stem-loop with a Cy3 dye and the Black Hole Quencher on the 3′ and 5′ ends of the DNA, respectively. DNA polymerase activity extends an annealed primer through the stem region, displacing the fluorophore from the quencher, thereby increasing its fluorescence (Figure 1(A)). The assay accurately recapitulates the kinetic behaviour of apPOL, as measured through more conventional low-throughput gel-based assays. The Z′ factor for the assay described here was 0.9 across all plates (data not shown).
# Figure 1. High-throughput screening. (A) The fluorescent-based DNA polymerase assay used to screen the compound libraries. The DNA template strand is a hairpin loop with a primer annealed to the loop. The 3’ end of the primer is 11 bases away from the 6 bp duplex. Strand displacement activity of the DNA polymerase separates the Cy3 dye from the Black hole quencher leading to an increase in fluorescent signal. (B) The high-throughput assay workflow. The DNA polymerase is incubated with […] compound for 10 min prior to addition of the hairpin substrate. The reaction is quenched at 3 different time points and the fluorescent signal is measured and % inhibition is determined using the provided equation.
# Chain of P. falciparum apicoplast DNA polymerase (Pf-apPOL) (Q8ILY1 entry or part of it): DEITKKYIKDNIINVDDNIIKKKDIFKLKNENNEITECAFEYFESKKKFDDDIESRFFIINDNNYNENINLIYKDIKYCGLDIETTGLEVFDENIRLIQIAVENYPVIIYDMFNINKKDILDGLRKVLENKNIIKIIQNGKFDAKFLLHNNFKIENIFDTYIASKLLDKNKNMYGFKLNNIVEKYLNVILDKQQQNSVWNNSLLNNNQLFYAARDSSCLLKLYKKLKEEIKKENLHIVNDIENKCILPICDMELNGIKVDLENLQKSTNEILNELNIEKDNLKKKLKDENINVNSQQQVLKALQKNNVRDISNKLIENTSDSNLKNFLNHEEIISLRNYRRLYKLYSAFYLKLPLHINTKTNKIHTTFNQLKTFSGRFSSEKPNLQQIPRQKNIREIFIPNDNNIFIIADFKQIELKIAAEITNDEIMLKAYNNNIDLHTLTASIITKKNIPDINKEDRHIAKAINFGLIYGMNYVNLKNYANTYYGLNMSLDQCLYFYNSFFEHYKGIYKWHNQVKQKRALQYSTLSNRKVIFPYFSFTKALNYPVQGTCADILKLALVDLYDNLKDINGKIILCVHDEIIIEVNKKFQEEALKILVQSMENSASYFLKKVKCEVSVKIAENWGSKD
smiles,measurement,setting,value
O=C(O)CC1=NN(c2cccc([N+](=O)[O-])c2)C(=O)C1 [KU0100531],DNA Pol,"'DNA Pol'; screening value, unit not given; 90 min, 10 µM",37
same,% inhibition Apo pol 10',DRC-1; 10'; concentration 2.5,32.2581%
same,% inhibition Apo pol 10',DRC-1; 10'; concentration 5,49.6373%
same,% inhibition Apo pol 10',DRC-1; 10'; concentration 10,61.4137%
same,% inhibition Apo pol 10',DRC-1; 10'; concentration 20,68.5645%
same,% inhibition Apo pol 10',DRC-1; 10'; concentration 40,76.8361%
same,% inhibition Apo pol 10',DRC-1; 10'; concentration 80,88.3009%
same,% inhibition Apol 90',DRC-1; 90'; concentration 2.5,15.7319%
same,% inhibition Apol 90',DRC-1; 90'; concentration 5,18.7201%
same,% inhibition Apol 90',DRC-1; 90'; concentration 10,28.2695%
same,% inhibition Apol 90',DRC-1; 90'; concentration 20,34.3533%
same,% inhibition Apol 90',DRC-1; 90'; concentration 40,46.1706%
same,% inhibition Apol 90',DRC-1; 90'; concentration 80,68.1347%
same,% inhibition apPOL 180',DRC-1; 180'; concentration 2.5,13.4028%
same,% inhibition apPOL 180',DRC-1; 180'; concentration 5,8.316%
same,% inhibition apPOL 180',DRC-1; 180'; concentration 10,15.9728%
same,% inhibition apPOL 180',DRC-1; 180'; concentration 20,20.4489%
same,% inhibition apPOL 180',DRC-1; 180'; concentration 40,28.0717%
same,% inhibition apPOL 180',DRC-1; 180'; concentration 80,50.5655%
same,% inhibition Apo pol 5',"DRC-2, 5', concentration 2.5",25%
same,% inhibition Apo pol 5',"DRC-2, 5', concentration 5",36%
same,% inhibition Apo pol 5',"DRC-2, 5', concentration 10",45%
same,% inhibition Apo pol 5',"DRC-2, 5', concentration 20",50%
same,% inhibition Apo pol 5',"DRC-2, 5', concentration 40",58%
same,% inhibition Apo pol 5',"DRC-2, 5', concentration 80",66%
same,% inhibition Apol 40',"DRC-2, 40', concentration 2.5",12%
same,% inhibition Apol 40',"DRC-2, 40', concentration 5",21%
same,% inhibition Apol 40',"DRC-2, 40', concentration 10",32%
same,% inhibition Apol 40',"DRC-2, 40', concentration 20",39%
same,% inhibition Apol 40',"DRC-2, 40', concentration 40",54%
same,% inhibition Apol 40',"DRC-2, 40', concentration 80",71%
same,% inhibition ApPOL 90',"DRC-2, 90', concentration 2.5",6%
same,% inhibition ApPOL 90',"DRC-2, 90', concentration 5",15%
same,% inhibition ApPOL 90',"DRC-2, 90', concentration 10",24%
same,% inhibition ApPOL 90',"DRC-2, 90', concentration 20",31%
same,% inhibition ApPOL 90',"DRC-2, 90', concentration 40",48%
same,% inhibition ApPOL 90',"DRC-2, 90', concentration 80",71%
same,% inhibition apPOL 180',"DRC-2, 180', concentration 2.5",2%
same,% inhibition apPOL 180',"DRC-2, 180', concentration 5",7.6%
same,% inhibition apPOL 180',"DRC-2, 180', concentration 10",17%
same,% inhibition apPOL 180',"DRC-2, 180', concentration 20",23%
same,% inhibition apPOL 180',"DRC-2, 180', concentration 40",41%
same,% inhibition apPOL 180',"DRC-2, 180', concentration 80",70%
same,% inhibition Apol 40',conc 80 (unit not given); 40'; DRC-2,71%
same,% inhibition ApPOL 90',conc 80 (unit not given); 90'; DRC-2,71%
same,DNA Pol,"primary screen hit value, DNA Pol (186 hits); 90 min, 10 µM",37
O=c1cc(-c2ccccc2Cl)oc2c(NS(=O)(=O)c3cc(Cl)cc(Cl)c3O)ccc(O)c12 [KU0104277],% inhibition Apo pol 10',DRC-1; 10'; concentration 2.5,-4.204%
same,% inhibition Apo pol 10',DRC-1; 10'; concentration 5,6.708%
same,% inhibition Apo pol 10',DRC-1; 10'; concentration 10,7.439%
same,% inhibition Apo pol 10',DRC-1; 10'; concentration 20,27.5333%
same,% inhibition Apo pol 10',DRC-1; 10'; concentration 40,73.9275%
same,% inhibition Apo pol 10',DRC-1; 10'; concentration 80,90.8547%
same,% inhibition Apol 90',DRC-1; 90'; concentration 2.5,-8.287%
same,% inhibition Apol 90',DRC-1; 90'; concentration 5,2.039%
same,% inhibition Apol 90',DRC-1; 90'; concentration 10,0.6918%
same,% inhibition Apol 90',DRC-1; 90'; concentration 20,20.1462%
same,% inhibition Apol 90',DRC-1; 90'; concentration 40,69.1951%
same,% inhibition Apol 90',DRC-1; 90'; concentration 80,87.9641%
same,% inhibition apPOL 180',DRC-1; 180'; concentration 2.5,-13.4888%
same,% inhibition apPOL 180',DRC-1; 180'; concentration 5,-5.423%
same,% inhibition apPOL 180',DRC-1; 180'; concentration 10,-7.477%
same,% inhibition apPOL 180',DRC-1; 180'; concentration 20,7.115%
same,% inhibition apPOL 180',DRC-1; 180'; concentration 40,55.1056%
same,% inhibition apPOL 180',DRC-1; 180'; concentration 80,83.6554%
same,% inhibition Apo pol 5',DRC-2; 5'; concentration 2.5,-4%
same,% inhibition Apo pol 5',DRC-2; 5'; concentration 5,-2.32%
same,% inhibition Apo pol 5',DRC-2; 5'; concentration 10,35%
same,% inhibition Apo pol 5',DRC-2; 5'; concentration 20,11%
same,% inhibition Apo pol 5',DRC-2; 5'; concentration 40,63%
same,% inhibition Apo pol 5',DRC-2; 5'; concentration 80,65%
same,% inhibition Apol 40',DRC-2; 40'; concentration 2.5,-1.34%
same,% inhibition Apol 40',DRC-2; 40'; concentration 5,-1%
same,% inhibition Apol 40',DRC-2; 40'; concentration 10,42%
same,% inhibition Apol 40',DRC-2; 40'; concentration 20,11%
same,% inhibition Apol 40',DRC-2; 40'; concentration 40,74%
same,% inhibition Apol 40',DRC-2; 40'; concentration 80,75%
same,% inhibition ApPOL 90',DRC-2; 90'; concentration 2.5,-1%
same,% inhibition ApPOL 90',DRC-2; 90'; concentration 5,0.948%
same,% inhibition ApPOL 90',DRC-2; 90'; concentration 10,41%
same,% inhibition ApPOL 90',DRC-2; 90'; concentration 20,9%
same,% inhibition ApPOL 90',DRC-2; 90'; concentration 40,75%
same,% inhibition ApPOL 90',DRC-2; 90'; concentration 80,76%
same,% inhibition apPOL 180',DRC-2; 180'; concentration 2.5,-2.11%
same,% inhibition apPOL 180',DRC-2; 180'; concentration 5,-2.49%
same,% inhibition apPOL 180',DRC-2; 180'; concentration 10,33%
same,% inhibition apPOL 180',DRC-2; 180'; concentration 20,3.69%
same,% inhibition apPOL 180',DRC-2; 180'; concentration 40,72%
same,% inhibition apPOL 180',DRC-2; 180'; concentration 80,73%
same,% inhibition ApPOL 90',conc. 2.5; 90'; DRC-2,-1%
same,% inhibition Apol 40',conc. 5; 40'; DRC-2,-1%
same,% inhibition Apo pol 5',conc. 20; 5'; DRC-2,11%
same,% inhibition Apol 40',conc. 20; 40'; DRC-2,11%
same,% inhibition ApPOL 90',conc. 40; 90'; DRC-2,75%
same,% inhibition Apol 40',conc. 80; 40'; DRC-2,75%
same,DNA Pol,"primary screen value by plate and well; 90 min, 10 µM",36
same,DNA Pol,"primary screen value of the 186 hits; unit not given; 90 min, 10 µM",36
